IC50 and EC50 data for 18 molecules are collected here from patent US8466162B2, “5-alkynyl-pyridines” (Boehringer Ingelheim International GmbH, priority 2011, dated 2013).

The target of one assay is T1, PI3Kalpha (Homo sapiens, UniProt P42336).
T1 construct: His (N); made in house; host or cells: SF9 insect cells (baculovirus co-infection)
In words: Inhibition of PI3Kalpha-induced PIP-2 phosphorylation (filter-binding assay, 33P-ATP). The class given is biochemical. The settings on record: PI3 Kinase alpha (p85alpha/His-p110alpha), 1 μM ATP; read-out: IC50 PI3Kα.

In a further assay the test system is MCF7 cells. In words: alamarBlue MCF7 cell assay (antiproliferative/cytotoxicity). The class given is cell-based. To be noted: MCF7 human breast cancer cell line. Summed up: (§1)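 Cells treated 5–6 days at 37 °C with compound, 10 μM top final concentration, 1:3 steps over 10 dilutions, in duplicate. alamarBlue then added for 8 h; fluorescence read at ex 530–560/em 590 nm, medium blank subtracted, EC50 fitted.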

Another assay concerns MB453 cells. In words: alamarBlue MB453 cell assay (antiproliferative/cytotoxicity). To be noted: Homo sapiens; MDA MB 453 breast cancer cell line. It counts as cell-based. Summed up:
as §1
In general terms: The colour change of resazurin is a common sign of viable cells or microbes.

For another assay, the system named is H460 cells. In words: alamarBlue H460 cell assay (antiproliferative/cytotoxicity). To be noted: NCI-H460; H460 human lung carcinoma cells. The class given is cell-based. The gist of the method: as §1
For another assay, the system named is BT474 cells. In words: alamarBlue BT474 cell assay (antiproliferative/cytotoxicity). The class given is cell-based. To be noted: BT-474 human breast cancer cell line, 5-6 days incubation. Summed up:
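EC50 values reflect antiproliferative or cytotoxic effect, taken from fluorometric alamarBlue signal (excitation 530-560 nm, emission 590 nm) corrected for a medium blank. Exposure lasted 5-6 days at concentrations up to 10 μM final.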

The next assay deals with U87 cells. In words: alamarBlue U87 cell assay (antiproliferative/cytotoxicity). It counts as cell-based. The settings on record: U-87MG human glioblastoma cells. The gist of the method:
as §1

What is called IC50 is the midpoint of a concentration-inhibition curve. For orientation: EC50 means the concentration that produces a half-maximal response. A higher EC50 goes with a need for much substance.

T1 sequence (P27986 whole entry): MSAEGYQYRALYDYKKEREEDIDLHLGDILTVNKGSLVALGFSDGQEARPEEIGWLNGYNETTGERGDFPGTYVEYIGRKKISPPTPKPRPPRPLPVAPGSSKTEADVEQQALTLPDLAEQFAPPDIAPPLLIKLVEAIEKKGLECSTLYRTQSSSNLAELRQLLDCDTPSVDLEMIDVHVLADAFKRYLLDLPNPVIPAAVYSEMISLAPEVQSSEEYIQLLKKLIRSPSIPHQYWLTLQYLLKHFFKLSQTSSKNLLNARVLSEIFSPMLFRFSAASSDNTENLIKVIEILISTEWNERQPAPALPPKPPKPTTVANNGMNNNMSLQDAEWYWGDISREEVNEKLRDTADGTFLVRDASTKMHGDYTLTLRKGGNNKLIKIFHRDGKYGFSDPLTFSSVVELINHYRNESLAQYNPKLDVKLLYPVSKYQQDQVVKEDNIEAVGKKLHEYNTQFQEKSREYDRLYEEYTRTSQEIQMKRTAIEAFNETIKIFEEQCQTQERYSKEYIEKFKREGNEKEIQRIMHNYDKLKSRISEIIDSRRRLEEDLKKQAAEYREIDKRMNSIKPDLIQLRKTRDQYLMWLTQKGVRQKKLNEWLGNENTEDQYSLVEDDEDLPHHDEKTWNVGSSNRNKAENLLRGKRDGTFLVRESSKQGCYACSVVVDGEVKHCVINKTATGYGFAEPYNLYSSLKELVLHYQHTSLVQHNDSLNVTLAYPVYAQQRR
T1 sequence (P42336 whole entry): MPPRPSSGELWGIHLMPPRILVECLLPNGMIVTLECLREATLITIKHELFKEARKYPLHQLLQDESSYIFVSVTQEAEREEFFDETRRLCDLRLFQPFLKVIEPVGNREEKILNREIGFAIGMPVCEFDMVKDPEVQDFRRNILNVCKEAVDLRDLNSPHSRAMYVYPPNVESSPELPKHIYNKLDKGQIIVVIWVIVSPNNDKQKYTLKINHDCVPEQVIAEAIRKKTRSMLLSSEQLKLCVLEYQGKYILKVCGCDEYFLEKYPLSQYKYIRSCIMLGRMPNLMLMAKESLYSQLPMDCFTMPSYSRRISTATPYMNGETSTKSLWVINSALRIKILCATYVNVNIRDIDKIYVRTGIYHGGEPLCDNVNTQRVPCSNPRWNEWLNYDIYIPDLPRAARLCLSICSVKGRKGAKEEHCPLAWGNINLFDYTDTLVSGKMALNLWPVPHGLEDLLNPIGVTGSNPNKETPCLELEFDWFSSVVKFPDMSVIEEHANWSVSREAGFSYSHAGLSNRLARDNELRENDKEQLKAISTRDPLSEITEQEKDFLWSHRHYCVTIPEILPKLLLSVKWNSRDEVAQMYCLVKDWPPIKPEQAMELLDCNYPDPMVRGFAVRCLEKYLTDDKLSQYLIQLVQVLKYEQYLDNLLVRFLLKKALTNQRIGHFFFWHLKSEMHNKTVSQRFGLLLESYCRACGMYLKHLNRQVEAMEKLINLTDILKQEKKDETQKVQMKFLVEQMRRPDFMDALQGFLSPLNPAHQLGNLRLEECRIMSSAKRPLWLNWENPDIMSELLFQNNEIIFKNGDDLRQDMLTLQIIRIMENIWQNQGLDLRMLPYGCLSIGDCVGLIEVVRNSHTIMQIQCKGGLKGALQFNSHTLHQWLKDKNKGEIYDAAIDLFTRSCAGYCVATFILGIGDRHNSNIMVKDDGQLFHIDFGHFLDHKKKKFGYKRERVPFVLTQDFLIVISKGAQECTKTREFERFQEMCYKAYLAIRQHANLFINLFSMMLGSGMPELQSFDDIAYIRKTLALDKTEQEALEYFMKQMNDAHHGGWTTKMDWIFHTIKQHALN

For `Cc1ncc(C#Cc2c(C)ncnc2-c2cccc(CN(C)C)c2)cc1NS(C)(=O)=O` [Example 41, N-{5-[4-(3-Dimethylaminomethyl-phenyl)-6-methyl-pyrimidin-5-ylethynyl]-2-methyl-pyridin-3-yl}-methanesulfonamide], the IC50 at PI3Kalpha was 9 nM. Also, the concentration giving a half-maximal response (EC50) in the assay with MCF7 cells worked out at 1860 nM; in the assay with MB453 cells, 1160 nM; in the assay on H460 cells it was 2750 nM; with BT474 cells it was 1280 nM; with U87 cells, 25000 nM.

On to `Cc1ncc(C#Cc2c(C)ncnc2-c2ccccc2)cc1NS(C)(=O)=O` [Example 42, N-[2-Methyl-5-(4-methyl-6-phenyl-pyrimidin-5-ylethynyl)-pyridin-3-yl]-methanesulfonamide], for which the IC50 at PI3Kalpha was 4 nM. For the same molecule, the half-maximal effective concentration (EC50) in the assay on MCF7 cells came out at 239 nM; in the assay with MB453 cells, 1330 nM; in the assay on H460 cells it was 2260 nM; with BT474 cells, 1130 nM; in the assay on U87 cells it was 1810 nM.

`Cc1cc(C)cc(-c2ncnc(C)c2C#Cc2cnc(C)c(NS(C)(=O)=O)c2)c1` [Example 43, N-{5-[4-(3,5-Dimethyl-phenyl)-6-methyl-pyrimidin-5-ylethynyl]-2-methyl-pyridin-3-yl}-elmethanesulfonamide]: the 50% inhibitory concentration (IC50) at PI3Kalpha was determined as 3 nM. For the same molecule, the concentration for a half-maximal effect (EC50) in the assay with MCF7 cells was 270 nM; in the assay on MB453 cells, 639 nM; in the assay on H460 cells, 337 nM; in the assay with BT474 cells, 897 nM; in the assay on U87 cells it was 900 nM.

Regarding `COc1ncc(C#Cc2c(C)ncnc2-c2ccnc(C)c2)cc1NS(=O)(=O)c1ccc(F)cc1F` [Example 44, 2,4-Difluoro-N-{2-methoxy-5-[4-methyl-6-(2-methyl-pyridin-4-yl)-pyrimidin-5-ylethynyl]-pyridin-3-yl}-benzenesulfonamide], on PI3Kalpha, the IC50 worked out at 0.55 nM. For the same molecule, the EC50 in the assay on MCF7 cells was found to be 3 nM; in the assay with MB453 cells it was 37 nM; in the assay with H460 cells, 15 nM; in the assay on BT474 cells, 23 nM; in the assay with U87 cells, 121 nM.

Take `COc1ccc(-c2ncnc(C)c2C#Cc2cnc(OC)c(NS(=O)(=O)c3ccc(F)cc3F)c2)cc1OC` [Example 45, N-{5-[4-(3,4-Dimethoxy-phenyl)-6-methyl-pyrimidin-5-ylethynyl]-2-methoxy-pyridin-3-yl}-2,4-difluoro-benzenesulfonamide]: the half-inhibitory concentration (IC50) at PI3Kalpha was 1 nM. Moreover, the EC50 in the assay on MCF7 cells came out at 5 nM; with MB453 cells, 34 nM; in the assay with H460 cells it was 11 nM; in the assay on BT474 cells, 10 nM; in the assay with U87 cells it was 131 nM.

On to `COc1ncc(C#Cc2c(C)ncnc2-c2ccc(C(=O)N3CCN(C)CC3)c(F)c2)cc1NS(=O)(=O)c1ccc(F)cc1F` [Example 46, 2,4-Difluoro-N-(5-{4-[3-fluoro-4-(4-methyl-piperazine-1-carbonyl)-phenyl]-6-methyl-pyrimidin-5-ylethynyl}-2-methoxy-pyridin-3-yl)-benzenesulfonamide], for which, at PI3Kalpha, the IC50 was determined as 0.67 nM. Also, the EC50 in the assay with MCF7 cells worked out at 5 nM; in the assay on MB453 cells, 22 nM; in the assay with H460 cells, 8 nM; with BT474 cells, 9 nM; in the assay on U87 cells, 38 nM.

Regarding `COc1ncc(C#Cc2c(C)ncnc2-c2ccc(C)nc2)cc1NS(=O)(=O)c1ccc(F)cc1F` [Example 47, 2,4-Difluoro-N-{2-methoxy-5-[4-methyl-6-(6-methyl-pyridin-3-yl)-pyrimidin-5-ylethynyl]-pyridin-3-yl}-benzenesulfonamide], on PI3Kalpha, the IC50 is 0.74 nM. Moreover, the EC50 was found to be 18 nM with MCF7 cells; 29 nM with MB453 cells; 7 nM in the assay on H460 cells; 43 nM in the assay with BT474 cells; 70 nM in the assay on U87 cells.

Turning to `CCc1ncnc(-c2ccc(CNC(=O)OC(C)(C)C)nc2)c1C#Cc1cnc(C)c(NS(=O)(=O)c2ccc(F)cc2F)c1` [Example 48, (5-{5-[5-(2,4-Difluoro-benzenesulfonylamino)-6-methyl-pyridin-3-ylethynyl]-6-ethyl-pyrimidin-4-yl}-pyridin-2-ylmethyl)-carbamic acid tert-butyl ester], the IC50 on PI3Kalpha turned out to be 0.42 nM. Moreover, the EC50 in the assay with MCF7 cells is 3 nM; in the assay with MB453 cells, 89 nM; in the assay on H460 cells it was 63 nM; in the assay with BT474 cells, 26 nM; with U87 cells, 89 nM.

As to `CCc1ncnc(-c2ccc(CNC(=O)OC(C)(C)C)nc2)c1C#Cc1cnc(C)c(NS(=O)(=O)c2ccccc2C(F)(F)F)c1` [Example 49, (5-{6-Ethyl-5-[6-methyl-5-(2-trifluoromethyl-benzenesulfonylamino)-pyridin-3-ylethynyl]-pyrimidin-4-yl}-pyridin-2-ylmethyl)-carbamic acid tert-butyl ester], the IC50 at PI3Kalpha is 2 nM. Besides, the EC50 is 57 nM in the assay with MCF7 cells; 169 nM in the assay on MB453 cells; 120 nM with H460 cells; 207 nM with BT474 cells; 241 nM in the assay on U87 cells.

As for `CCc1ncnc(-c2ccc(CNC(=O)OC(C)(C)C)nc2)c1C#Cc1cnc(C)c(NS(=O)(=O)c2ccccc2)c1` [Example 50, {5-[5-(5-Benzene-sulfonylamino-6-methyl-pyridin-3-ylethynyl)-6-ethyl-pyrimidin-4-yl]-pyridin-2-ylmethyl}-carbamic acid tert-butyl ester], the 50% inhibitory concentration (IC50) on PI3Kalpha was found to be 0.43 nM. The concentration for a half-maximal effect (EC50) in the assay on MCF7 cells amounted to 27 nM; in the assay with MB453 cells, 115 nM; in the assay with H460 cells it was 104 nM; with BT474 cells it was 102 nM; in the assay on U87 cells, 104 nM.

`CCc1ncnc(-c2ccccc2)c1C#Cc1cnc(C)c(NS(C)(=O)=O)c1` [Example 52, N-[5-(4-Ethyl-6-phenyl-pyrimidin-5-ylethynyl)-2-methyl-pyridin-3-yl]-methanesulfonamide]: the concentration for half-maximal inhibition (IC50) at PI3Kalpha was 3 nM. Further, the EC50 was 154 nM with MCF7 cells; 452 nM with MB453 cells; 1210 nM in the assay with H460 cells; 520 nM with BT474 cells; 1020 nM in the assay with U87 cells.

In the case of `CCc1ncnc(-c2cccc(C#N)c2)c1C#Cc1cnc(C)c(NS(C)(=O)=O)c1` [Example 55, N-{5-[4-(3-Cyano-phenyl)-6-ethyl-pyrimidin-5-ylethynyl]-2-methyl-pyridin-3-yl}-methanesulfonamide], the IC50 at PI3Kalpha turned out to be 3 nM. The EC50 in the assay on MCF7 cells was 126 nM; in the assay with MB453 cells, 317 nM; in the assay on H460 cells, 945 nM; in the assay with BT474 cells, 302 nM; in the assay with U87 cells it was 609 nM.

Turning to `CCc1ncnc(-c2ccccc2F)c1C#Cc1cnc(C)c(NS(C)(=O)=O)c1` [Example 57, N-{5-[4-Ethyl-6-(2-fluoro-phenyl)-pyrimidin-5-ylethynyl]-2-methyl-pyridin-3-yl}-methanesulfonamide], at PI3Kalpha, the IC50 came to 8 nM. In addition, the EC50 turned out to be 541 nM in the assay on MCF7 cells; 1620 nM in the assay with MB453 cells; 3140 nM in the assay with H460 cells; 1080 nM in the assay on BT474 cells; 2660 nM with U87 cells.

On to `CCc1ncnc(-c2cccc(F)c2)c1C#Cc1cnc(C)c(NS(C)(=O)=O)c1` [Example 61, N-{5-[4-Ethyl-6-(3-fluoro-phenyl)-pyrimidin-5-ylethynyl]-2-methyl-pyridin-3-yl}-methanesulfonamide], for which the IC50 on PI3Kalpha is 1 nM. Besides, the EC50 with MCF7 cells was 454 nM; in the assay on MB453 cells, 420 nM; in the assay on H460 cells it was 400 nM; in the assay with BT474 cells it was 693 nM; with U87 cells, 321 nM.

As for `CCc1ncnc(-c2ccccc2OC)c1C#Cc1cnc(C)c(NS(C)(=O)=O)c1` [Example 62, N-{5-[4-Ethyl-6-(2-methoxy-phenyl)-pyrimidin-5-ylethynyl]-2-methyl-pyridin-3-yl}-methanesulfonamide], the half-inhibitory concentration (IC50) at PI3Kalpha amounted to 12 nM. In addition, the EC50 was 1420 nM in the assay on MCF7 cells; 2900 nM in the assay with MB453 cells; 2760 nM in the assay with H460 cells; at least 10000 nM with BT474 cells; 25000 nM in the assay on U87 cells.

For `CCc1ncnc(-c2ccc(F)cc2F)c1C#Cc1cnc(C)c(NS(C)(=O)=O)c1` [Example 63, N-{5-[4-(2,4-Difluoro-phenyl)-6-ethyl-pyrimidin-5-ylethynyl]-2-methyl-pyridin-3-yl}-methanesulfonamide], the IC50 on PI3Kalpha amounted to 4 nM. Besides, the EC50 with MCF7 cells came to 734 nM; in the assay with MB453 cells it was 1180 nM; with H460 cells it was 1110 nM; in the assay with BT474 cells, 1540 nM; in the assay with U87 cells, 1880 nM.

As for `CCc1ncnc(-c2cccc(OC(C)C)c2)c1C#Cc1cnc(C)c(NS(C)(=O)=O)c1` [Example 64, N-{5-[4-Ethyl-6-(3-isopropoxy-phenyl)-pyrimidin-5-ylethynyl]-2-methyl-pyridin-3-yl}-methanesulfonamide], the IC50 on PI3Kalpha is 2 nM. The EC50 in the assay on MCF7 cells worked out at 309 nM; in the assay on MB453 cells, 621 nM; in the assay on H460 cells it was 606 nM; with BT474 cells it was 615 nM; with U87 cells, 888 nM.

Regarding `CCc1ncnc(-c2cccc(C(F)(F)F)c2F)c1C#Cc1cnc(C)c(NS(C)(=O)=O)c1` [Example 70, N-{5-[4-Ethyl-6-(2-fluoro-3-trifluoromethyl-phenyl)-pyrimidin-5-ylethynyl]-2-methyl-pyridin-3-yl}-methanesulfonamide], the IC50 at PI3Kalpha amounted to 20 nM. Besides, the EC50 with MCF7 cells was 374 nM; in the assay on MB453 cells, 1270 nM; in the assay with H460 cells, 1180 nM; in the assay on BT474 cells it was 1570 nM; with U87 cells, 2350 nM.
